Laboratory results taken from PubChem BioAssay (NCI).
“And” between values parts separate entries of the source, which are not always exact repeats. Equal values may be shown once.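 Following 48 hours of exposure in 96-well plates, responses at five concentrations were used to interpolate endpoints linearly. Here, GI50 denotes the concentration required for 50% inhibition of growth. Definition used: TGI = concentration required for complete inhibition of growth.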

Columns and labels:
Experiment in all cases: DTP human tumour cell line panel, 48 h
[1] = test system: SK-MEL-28 melanoma
[2] = test system: RPMI-8226 leukemia
[3] = test system: SNB-19 CNS
[4] = test system: K-562 leukemia
[5] = test system: SK-MEL-5 melanoma
[6] = test system: ACHN renal
[7] = test system: SN12C renal
[8] = test system: HOP-62 NSCLC
[9] = test system: UACC-62 melanoma
[10] = test system: CAKI-1 renal
[11] = test system: OVCAR-8 ovarian
[12] = test system: 786-0 renal
[13] = test system: CCRF-CEM leukemia
[14] = test system: MDA-MB-435
[15] = test system: SK-OV-3 ovarian
[16] = test system: NCI/ADR-RES ovarian
[17] = test system: A498 renal
[18] = test system: OVCAR-4 ovarian
[19] = test system: PC-3 prostate
[20] = test system: KM12 colon
[21] = test system: UO-31 renal
[22] = test system: DU-145 prostate
[23] = test system: NCI-H226 lung
[24] = test system: SF-539 CNS
[25] = test system: LOX IMVI melanoma
[26] = test system: SW-620 colon
[27] = test system: COLO 205 colon
[28] = test system: HT29 colon
[29] = test system: MDA-MB-231 breast
[30] = test system: IGROV1 ovarian

CC(C)C[C@@H](NC(=O)[C@@H](Cc1ccccc1)NC(=O)c1cnccn1)B1Oc2ccc(C[C@H](NC(=O)[C@H](Cc3ccc4c(c3)OB([C@@H](CC(C)C)NC(=O)[C@@H](Cc3ccccc3)NC(=O)c3cnccn3)O4)NC(=O)[C@@H](N)CC3CCC4OB([C@@H](CC(C)C)NC(=O)[C@@H](CC5CCCCC5)NC(=O)C5CNCCN5)OC4C3)C(=O)NCCCC[C@@H]3NC(=O)[C@@H](Cc4ccccc4)NC(=O)[C@H](CC(=O)O)NC(=O)CNC(=O)[C@H](CCCNC(=N)N)NC3=O)cc2O1 (stereo not given in full)
GI50 [1]: 5.63 nM and 2.5 nM | TGI [1]: 517 nM and 106 nM | GI50 [2]: 4.32 nM and 2.5 nM | TGI [2]: 243 nM and 109 nM | GI50 [3]: 13.6 nM and 2.5 nM | TGI [3]: 4700 nM | GI50 [4]: 0.713 nM and 2.5 nM | TGI [4]: > 25000 nM | GI50 [5]: 3.01 nM and 2.5 nM | TGI [5]: 8.71 nM and 4.81 nM | GI50 [6]: 3.95 nM and 2.5 nM | TGI [6]: 257 nM and 283 nM | GI50 [7]: 7.93 nM and 4.85 nM | TGI [7]: 80.4 nM and 31.9 nM | GI50 [8]: 7.45 nM and 6.55 nM | TGI [8]: 46.3 nM and 17.7 nM | GI50 [9]: 4.12 nM and 2.5 nM | GI50 [10]: 3.55 nM and 7.13 nM | TGI [10]: 22.2 nM and 38.3 nM | GI50 [11]: 22 nM and 8.17 nM | GI50 [12]: 3.68 nM and 2.5 nM | GI50 [13]: 3.82 nM and 2.5 nM | TGI [13]: > 25000 nM | GI50 [14]: 2.06 nM and < 2.5 nM | TGI [14]: 4.52 nM and < 2.5 nM | GI50 [15]: 30.9 nM and 7.54 nM | TGI [15]: 694 nM | GI50 [16]: 54.8 nM and 17.4 nM | TGI [16]: 669 nM and 148 nM | GI50 [17]: 3.36 nM and 2.5 nM | TGI [17]: 10.7 nM and 5.35 nM | GI50 [18]: 5.05 nM and 2.5 nM | TGI [18]: 181 nM and 548 nM | GI50 [19]: 13.5 nM and 6.32 nM | TGI [19]: 186 nM and 60.4 nM | GI50 [20]: 3.94 nM and 2.95 nM | TGI [20]: 15.2 nM and 8.16 nM | GI50 [21]: 4.28 nM and 2.5 nM | TGI [21]: 102 nM and 14.8 nM | GI50 [22]: 5.74 nM and 2.5 nM | TGI [22]: 2980 nM | GI50 [23]: 2.29 nM | TGI [23]: 4.54 nM | GI50 [24]: 2.51 nM and < 2.5 nM | TGI [24]: 7.22 nM and < 2.5 nM | GI50 [25]: 2.41 nM and < 2.5 nM | TGI [25]: 6.6 nM and < 2.5 nM | GI50 [26]: 4.26 nM and 2.5 nM | TGI [26]: 115 nM and 261 nM | GI50 [27]: 5.51 nM and 5.55 nM | TGI [27]: 293 nM and 86.4 nM | GI50 [28]: 3.73 nM and 2.5 nM | GI50 [29]: 7.73 nM and 2.5 nM | TGI [29]: 56 nM and 20.5 nM | GI50 [30]: 21.7 nM and 2.5 nM
